Experimental data taken from patent US10358453B2, “Antiviral compounds” (priority 2015, dated 2019).
Like-named read-outs stand apart in the source and are kept apart here.

Tests used:
recombinant RSV complex = recombinant RSV complex (Human respiratory syncytial virus A, UniProt P28887); test: RSV polymerase inhibition assay; assay type: biochemical; settings: 2 h at 30° C., Table E = <1 μM, Table F = <50 μM
Experimental: Standard RSV polymerase assays were conducted in the presence of 10 nM recombinant RSV complex in a reaction buffer containing Tris-HCl pH7.5, 6 mM MgCl2, and other additives and substrates including RNA oligonucleotides and radionucleotides. Standard reactions were incubated in 96-well plate format for 2 h at 30° C., in the presence of increasing concentration of inhibitor. The reaction was stopped with 90 μL of 0.1M EDTA, and the reaction product was transferred to a “reading” 96-well plate. After washing of the plate, radiolabeled RNA products were detected according to standard procedures with a Trilux Topcount scintillation counter. The compound concentration at which the enzyme-catalyzed rate was reduced by 50% (IC50) was calculated by fitting the data to a non-linear regression (sigmoidal).

[1] = Cytotoxicity determination (CCK-8, without addition of virus); assay type: cell-based; settings: human, HEp-2 cells (uninfected), no virus, Table C = greater than 100 μM, Table D = equal to or less than 100 μM and greater than 10 μM
Experimental: CPE reduction assays are performed as described by Sidwell and Huffman et al., Appl. Microbiol. (1971) 22(5):797-801 with slight modifications. HEp-2 cells (ATCC#, CCL-23) are seeded at a density of 1,500 cells/30 μL/well into the 384-well cell plate(s) (Corning#3701) one day prior to the assay. Compounds are added into 384-well cell plates by Labcyte POD 810 Plate Assembler system. Each of the test compounds is provided to duplicate wells of a 384-well cell plate at final concentrations starting from 100 μM or 1 μM using 1/3 stepwise dilutions for 9 points. Quick-thaw Respiratory Syncytial Virus (RSV) long strain (ATCC#VR-26) stock in a 37° C. water bath. Place on ice until ready to use. Viruses are diluted to the concentration of 100 TCID50/30 μL with medium and 30 μl diluted RSV are added into related wells of 384-well cell plates. For each plate, sixteen wells are set aside as uninfected, untreated cell controls (CC), and nine wells per test plate receive virus only as a control for virus replication (VC). The final DMSO concentration of all wells is 1%. Place the plates at 37° C., 5% CO2 for 5 days.
In order to determine the compound cytotoxicity, in parallel, each of the compounds is applied to duplicate wells in a 384-well cell plate at serial final concentrations starting from 100 μM using ½ stepwise dilutions for 7 points without addition of virus. Incubate the cells at 37° C., 5% CO2 for 5 days. Add 6 μL CCK-8 into each well and incubate in a CO2 incubator at 37° C. for 3-4 h. Read the plates to obtain the optical densities which are used to calculate 50% cytotoxicity concentration (CC50).

[2] = system: RSV subgenomic replicon 395 HeLa and APC126; test: RSV subgenomic replicon assay (Renilla luciferase); assay type: cell-based; settings: human respiratory syncytial virus; RSV replicon cells (395 HeLa 7 days or APC126 3 days); Table G = less than 1 μM, Table H = equal to or higher than 1 μM and less than 50 μM
Text: The RSV subgenomic replicon 395 HeLa and APC126 were licensed from Apath (Brooklyn, N.Y.) and were originally developed by Dr. Mark Meeples of Center for Vaccines & Immunity, the Research Institute at Nationwide Children's Hospital in Columbus, Ohio. To generate subgenomic RSV replicon, three glycoprotein genes, those for SH, G, and F, from a full-length recombinant GFP-expressing (rg) RSV antigenomic cDNA were deleted. In their place, a blasticidin S deaminase (bsd) gene was inserted. Through multiple steps, the RSV replicon was established in HeLa cells (395 Hela) or BHK cells (APC126). Both 395 HeLa and APC126 cells were cultured in Dulbecco's Modified Eagle Medium (DMEM) containing 4500 mg/L D-glucose, L-glutamine, and 110 mg/L sodium pyruvate (Invitrogen, Cat. #11995-040). The medium was further supplemented with 10% (v/v) fetal bovine serum (FBS) (Mediatech, Cat. #35-010-CV), 1% (v/v) penicillin/streptomycin (Mediatech, Cat. #30-002-CI), and 10 μg/mL of Blasticidin (BSD) (Invivogen, Cat. code ant-bl-1). Cells were maintained at 37° C. in a humidified 5% CO2 atmosphere.
Determination of 50% inhibitory concentration (EC50), 90% inhibitory concentration (EC90) and 50% cytotoxic concentration (CC50) in RSV replicon cells were performed by the following procedure. On the first day, 5000 RSV replicon cells per well were plated in a 96-well plate. On the following day, compounds to be tested were solubilized in 100% DMSO to 100X the desired final testing concentration. Each compound was serially diluted (1:3) up to 9 distinct concentrations. Compounds in 100% DMSO were reduced to 10% (v/v) DMSO by diluting 1:10 in cell culture media. A 10 μL sample of the compounds diluted to 10% (v/v) DMSO with cell culture media was used to treat the RSV replicon cells in 96-well format. The final DMSO concentration was 1% (v/v). Cells were incubated with compounds for 7 days (for 395Hela) or 3 days (for APC126) at 37° C. in a 5% CO2 atmosphere. In each assay, positive control that was previously characterized in the RSV replicon assay was included.
The Renilla Luciferase Assay System (Promega, Cat. #E2820) was used to measure anti-RSV replicon activity. Assay plates were set up as stated above. Luminescence was recorded using a Perkin Elmer multilabel counter Victor3V. EC50, the concentration of the drug required for reducing RSV replicon RNA by 50% in relation to the untreated cell control value, was calculated from the plot of percentage reductions of the […] against the drug concentrations using the Microsoft Excel forecast function.

[3] = 10 nM recombinant RSV complex, read-out: IC50
[4] = IC50, 10 nM recombinant RSV complex

Chain of recombinant RSV complex (P28887 whole entry): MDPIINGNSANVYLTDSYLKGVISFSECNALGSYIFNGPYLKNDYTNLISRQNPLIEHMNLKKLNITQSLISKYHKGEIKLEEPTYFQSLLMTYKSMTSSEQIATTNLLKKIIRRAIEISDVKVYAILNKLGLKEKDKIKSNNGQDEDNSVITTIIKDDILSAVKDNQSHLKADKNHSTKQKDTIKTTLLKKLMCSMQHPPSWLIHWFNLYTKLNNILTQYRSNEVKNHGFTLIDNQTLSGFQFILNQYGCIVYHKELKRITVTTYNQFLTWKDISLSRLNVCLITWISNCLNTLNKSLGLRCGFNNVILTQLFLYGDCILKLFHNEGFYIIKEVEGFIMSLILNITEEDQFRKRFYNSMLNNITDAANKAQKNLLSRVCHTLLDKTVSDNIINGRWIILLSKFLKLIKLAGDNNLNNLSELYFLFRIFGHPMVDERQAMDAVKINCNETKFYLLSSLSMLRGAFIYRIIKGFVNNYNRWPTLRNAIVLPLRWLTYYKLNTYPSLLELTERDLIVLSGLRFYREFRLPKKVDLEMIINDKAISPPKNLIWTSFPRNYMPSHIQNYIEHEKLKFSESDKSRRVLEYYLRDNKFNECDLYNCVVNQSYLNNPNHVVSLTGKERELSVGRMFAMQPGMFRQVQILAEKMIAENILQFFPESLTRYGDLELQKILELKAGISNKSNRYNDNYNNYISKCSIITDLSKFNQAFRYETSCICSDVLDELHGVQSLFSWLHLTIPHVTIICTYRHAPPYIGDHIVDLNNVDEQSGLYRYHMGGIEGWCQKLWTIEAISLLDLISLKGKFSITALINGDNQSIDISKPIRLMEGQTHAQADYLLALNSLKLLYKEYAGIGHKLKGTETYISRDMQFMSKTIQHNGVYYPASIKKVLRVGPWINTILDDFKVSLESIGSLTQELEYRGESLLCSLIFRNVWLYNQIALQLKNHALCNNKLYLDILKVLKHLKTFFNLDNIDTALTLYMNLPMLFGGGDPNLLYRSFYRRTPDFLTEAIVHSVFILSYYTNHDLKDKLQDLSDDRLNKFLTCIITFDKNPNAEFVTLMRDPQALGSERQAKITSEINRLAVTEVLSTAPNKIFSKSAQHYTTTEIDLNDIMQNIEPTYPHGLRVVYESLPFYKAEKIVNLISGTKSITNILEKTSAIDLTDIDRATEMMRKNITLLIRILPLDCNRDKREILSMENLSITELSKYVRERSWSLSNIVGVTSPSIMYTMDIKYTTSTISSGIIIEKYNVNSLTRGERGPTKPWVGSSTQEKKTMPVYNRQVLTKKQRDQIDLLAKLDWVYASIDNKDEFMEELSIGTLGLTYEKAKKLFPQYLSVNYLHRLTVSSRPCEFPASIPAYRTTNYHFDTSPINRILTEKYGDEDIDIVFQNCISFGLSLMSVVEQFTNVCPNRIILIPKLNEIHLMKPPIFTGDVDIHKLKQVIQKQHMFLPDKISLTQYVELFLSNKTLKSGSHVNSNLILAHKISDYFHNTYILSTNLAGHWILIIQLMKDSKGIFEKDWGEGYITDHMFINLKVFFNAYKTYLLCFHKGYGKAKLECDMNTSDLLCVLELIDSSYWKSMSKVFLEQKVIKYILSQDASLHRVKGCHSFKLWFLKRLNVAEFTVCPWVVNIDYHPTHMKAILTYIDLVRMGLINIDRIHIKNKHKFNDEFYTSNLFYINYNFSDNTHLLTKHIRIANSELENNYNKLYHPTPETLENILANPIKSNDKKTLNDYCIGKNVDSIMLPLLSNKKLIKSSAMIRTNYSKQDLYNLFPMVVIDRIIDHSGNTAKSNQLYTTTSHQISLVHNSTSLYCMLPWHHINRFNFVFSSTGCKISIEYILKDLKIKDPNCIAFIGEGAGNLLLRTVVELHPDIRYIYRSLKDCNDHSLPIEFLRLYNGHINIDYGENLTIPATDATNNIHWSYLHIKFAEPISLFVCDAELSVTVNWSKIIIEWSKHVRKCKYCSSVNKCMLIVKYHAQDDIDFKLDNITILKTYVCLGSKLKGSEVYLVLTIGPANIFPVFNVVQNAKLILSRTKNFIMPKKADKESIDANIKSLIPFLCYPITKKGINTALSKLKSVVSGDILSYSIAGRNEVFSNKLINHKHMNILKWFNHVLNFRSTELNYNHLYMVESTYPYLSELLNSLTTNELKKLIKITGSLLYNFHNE
Chain of recombinant RSV complex (P03421 whole entry, further chain): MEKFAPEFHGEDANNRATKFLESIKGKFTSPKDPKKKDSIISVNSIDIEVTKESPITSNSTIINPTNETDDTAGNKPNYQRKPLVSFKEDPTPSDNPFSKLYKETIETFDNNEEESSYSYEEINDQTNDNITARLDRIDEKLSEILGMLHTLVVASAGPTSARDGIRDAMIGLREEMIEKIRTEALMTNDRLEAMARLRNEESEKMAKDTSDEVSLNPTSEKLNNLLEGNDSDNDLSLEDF

| Compound | IC50 (recombinant RSV complex; [3]) [µM] | CC50 at 5 days [1] [µM] | EC50 [2] [µM] | IC50 (recombinant RSV complex; [4]) [µM] |
| --- | --- | --- | --- | --- |
| COc1cc(C(=O)NCC(O)(c2cc3c(c(-c4ccc(F)cc4)n2)OCC3(C)N)C(F)(F)F)cc2c1NC(=O)NC2 (stereo not drawn) [Compound 43] | < 1 | 10 to 100 | 1 to 50 |  |
| COc1cc(C(=S)NCC(O)(c2cc3c(c(-c4ccc(F)cc4)n2)OCC3(C)N)C(F)(F)F)ccc1OCCO (stereo not drawn) [Compound 44] | < 1 | 10 to 100 | < 1 |  |
| COc1nc(C(=O)NCC(O)(c2cc3c(c(-c4ccc(F)cc4)n2)OCC3(C)N)C(F)(F)F)cc2c1NC(=O)C2 (stereo not drawn) [Compound 47] | < 1 | 10 to 100 | < 1 |  |
| CC1(N)COc2c1cc(C(O)(CNC(=O)c1ccc(CCO)c(OC3CC3)c1)C(F)(F)F)nc2-c1ccc(F)cc1 (stereo not drawn) [Compound 49] | < 1 | 10 to 100 | < 1 |  |
| C[C@@]1(N)COc2c1cc([C@](O)(CNC(=O)c1ccc(OCCO)c(OC3CC3)c1)C(F)(F)F)nc2-c1ccc(F)cc1 [Compound 55] | < 1 | 10 to 100 | < 1 |  |
| CC(C)(N)c1cc(-c2ccc(F)cc2)nc([C@@](O)(CNC(=O)c2ccc(OCCO)c(OC3CC3)c2)C(F)(F)F)c1 [Compound 57] | < 1 | 10 to 100 | < 1 |  |
| CC(C)(N)c1cc(-c2ccc(F)cc2)nc([C@@](O)(CNC(=O)c2ccc(OC3CC3)c(OCCO)c2)C(F)(F)F)c1 [Compound 59] | < 1 | 10 to 100 | < 1 |  |
| C[C@@]1(N)COc2c1cc([C@@](O)(CNC(=O)c1ccc(OC3CC3)c(OCCO)c1)C(F)(F)F)nc2-c1ccc(F)cc1 [Compound 60] | < 1 | 10 to 100 | < 1 |  |
| C[C@@]1(N)CNc2c1cc([C@](O)(CNC(=O)c1ccc(OCCO)c(OC3CC3)c1)C(F)(F)F)nc2-c1ccc(F)cc1 [Compound 61] | < 1 | 10 to 100 | < 1 |  |
| C[C@@]1(N)CNc2c1cc([C@](O)(CNC(=O)c1ccc(OC3CC3)c(OC3CC3)c1)C(F)(F)F)nc2-c1ccc(F)cc1 [Compound 62] | < 50 | 10 to 100 | < 1 |  |
| COc1cc(C(=O)NC[C@@](O)(c2cc3c(c(-c4ccc(F)cc4)n2)OC[C@@]3(C)N)C(F)(F)F)cc(OC)c1CCCO [Compound 65] | < 1 | 10 to 100 | < 1 |  |
| COc1cc(C(=O)NC[C@@](O)(c2cc3c(c(-c4ccc(F)cc4)n2)OC[C@@]3(C)N)C(F)(F)F)cc(OC)c1OCCO [Compound 67] |  | > 100 | < 1 | < 50 |
| COc1cc(OCCO)cc(C(=O)NC[C@@](O)(c2cc3c(c(-c4ccc(F)cc4)n2)OC[C@@]3(C)N)C(F)(F)F)c1 [Compound 68] | < 1 | 10 to 100 | < 1 |  |
| COc1cc(C(=O)NC[C@@](O)(c2cc3c(c(-c4ccc(F)cc4)n2)NC[C@@]3(C)N)C(F)(F)F)ccc1OC[C@@H](C)O [Compound 69] | < 1 | 10 to 100 | < 1 |  |
| COc1cc(C(=O)NC[C@@](O)(c2cc3c(c(-c4ccc(F)cc4)n2)NC[C@@]3(C)N)C(F)(F)F)ccc1OCC(N)=O [Compound 72] | < 1 | > 100 | < 1 |  |
| COc1cc(C(=O)NCC(O)(c2cc3c(c(-c4ccc(F)cc4)n2)CCC3(C)N)C(F)(F)F)ccc1OCCO (stereo not drawn) [Compound 73] | < 1 | 10 to 100 | < 1 |  |
| COc1cc(C(=O)NC[C@@](O)(c2cc3c(c(-c4ccc(F)cc4)n2)NC[C@@]3(C)N)C(F)(F)F)cc2cccnc12 [Compound 74] | < 1 | 10 to 100 | < 1 |  |
| COc1cc(C(=O)NC[C@@](O)(c2cc3c(c(-c4ccc(F)cc4)n2)NC[C@@]3(C)N)C(F)(F)F)ncc1OCCO [Compound 75] | < 1 | 10 to 100 | < 1 |  |
| C[C@@]1(N)CNc2c1cc([C@](O)(CNC(=O)c1ccc3c(c1)CC(=O)N3)C(F)(F)F)nc2-c1ccc(F)cc1 [Compound 76] | < 1 | 10 to 100 | < 1 |  |
| COc1cc(C(=O)NC[C@@](O)(c2cc3c(c(-c4ccc(F)cc4)n2)N(C)C[C@@]3(C)N)C(F)(F)F)ccc1OCCO [Compound 79] | < 1 | 10 to 100 | < 1 |  |
| C[C@@]1(N)COc2c1cc([C@](O)(CNC(=O)c1cc(OCCO)c3ncccc3c1)C(F)(F)F)nc2-c1ccc(F)cc1 [Compound 80] | < 1 | 10 to 100 | < 1 |  |
| C[C@@]1(N)CNc2c1cc([C@](O)(CNC(=O)c1cc(OCCO)c3ncccc3c1)C(F)(F)F)nc2-c1ccc(F)cc1 [Compound 81] | < 1 | 10 to 100 | < 1 |  |
| C[C@@]1(N)CNc2c1cc([C@](O)(CNC(=O)c1ccc3c(c1)CC(=O)N3CCO)C(F)(F)F)nc2-c1ccc(F)cc1 [Compound 82] |  | > 100 | < 1 | < 1 |
| COc1cc(C(=O)NC[C@@](O)(c2cc3c(c(-c4ccc(F)cc4)n2)NC[C@@]3(C)N)C(F)(F)F)cc2cc[nH]c12 [Compound 83] | < 1 | 10 to 100 | < 1 |  |
